# Assay results taken from US20250282742A1, “BENZOFURAN DERIVATIVES FOR TARGETING AUTOPHAGY” (Automera PTE. LTD, priority 2024, published 2025).
# Target: T1, Recombinant p62 protein (Homo sapiens, UniProt Q13501)
# T1 construct: Recombinant p62 protein was buffer exchanged into Biacore SPR running buffer
# Test: Surface plasmon resonance (SPR) compound binding to immobilised p62
# Details: recombinant p62, 15° C
# Description: Example 28: Surface Plasmon Resonance (SPR) Analysis
# Recombinant p62 protein was buffer exchanged into Biacore SPR running buffer (Cytiva 100671) using the Slide-A-Lyzer Mini Dialysis system 7K MWCO (Thermo Fisher Scientific, Cat no. 69560). The final protein concentration was determined using the Nanodrop One spectrophotometer (Thermo Fisher Scientific, cat no. ND-ONE-W), with calibration for the dialysis buffer.
# The prepared protein was diluted in sodium acetate buffer (NaAc, pH 5.5, Cytiva) to concentrations ranging from approximately 0.25-40 μg/mL. Post-immobilization, the protein required approximately 16 hours of equilibration in running buffer supplemented with 1% DMSO at 15° C. to ensure adequate surface equilibration and protein reorganization.
# All SPR experiments were conducted at a constant temperature of 15° C. The SPR chip surface was activated using EDC/NHS for a contact time of 6-10 min at a flow rate of 10 μL/min. This was followed by protein immobilization for 2100 seconds and ethanolamine capping for 420 seconds, both at the same flow rate. Immediately after immobilization, the NH2—REEE peptide was analyzed in Single Cycle Kinetics mode (SCK) to verify surface activity, ensuring it binds the sample with the published affinity (−20 μM by SPR).
# For general compound binding studies, experiments were performed at 15° C. using a running buffer composed of 10 mM HEPES, 150 mM NaCl, 1 mM DTT, 0.05% Tween 20, and 1% DMSO at pH 7.4. The test compound was initially prepared at a 20 mM concentration in DMSO and subsequently titrated in 2-fold dilutions. For each assay, 2 μL of the compound was mixed with 198 μL of the running buffer, and the mixture was thoroughly pipetted approximately 15 times for homogenization.
# A series of blank injections (0 μM concentration) were included for double referencing, with at least 8 or 16 per plate depending on the format. Typical injection parameters were 120 seconds for association and 180 seconds for dissociation at a flow rate of […]. A four-point solvent correction was prepared with DMSO concentrations ranging from 2% to 0.5% in the buffer. Post each compound injection, the system's needles were washed with 50% DMSO.
# Analysis of the SPR data was conducted using the Cytiva Evaluation software. The binding levels at the late time-point of each interaction were corrected for reference, then normalized to percentage bound values to account for variations in immobilization levels, protein molecular weight, and compound molecular weight.
# Compound binding studies were carried out according to experimental procedures above and SPR % occupancy was determined and summarized in Table 7.
# T1 sequence (Q13501 whole entry, species assumed): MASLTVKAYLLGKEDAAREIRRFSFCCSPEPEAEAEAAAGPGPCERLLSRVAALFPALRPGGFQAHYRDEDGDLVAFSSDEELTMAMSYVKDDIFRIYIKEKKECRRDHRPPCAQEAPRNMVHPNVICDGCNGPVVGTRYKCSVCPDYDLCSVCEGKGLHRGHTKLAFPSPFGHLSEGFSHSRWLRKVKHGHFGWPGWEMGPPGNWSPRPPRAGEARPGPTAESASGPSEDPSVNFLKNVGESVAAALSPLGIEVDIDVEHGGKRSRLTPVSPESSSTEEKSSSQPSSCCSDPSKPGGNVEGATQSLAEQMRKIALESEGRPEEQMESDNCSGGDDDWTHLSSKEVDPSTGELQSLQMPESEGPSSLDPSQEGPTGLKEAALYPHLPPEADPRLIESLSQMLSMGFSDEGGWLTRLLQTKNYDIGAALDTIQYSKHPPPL
row,SMILES,receptor occupancy at 100 µM [%]
1,"O=C(NCCO)c1ccc2cc(CCc3ccc(F)cc3)oc2c1 [compound 50, 2-(4-fluorophenethyl)-N-(2-hydroxyethyl)benzofuran-6-carboxamide]",< 30
2,OCCNCc1ccc2cc(Cc3c[nH]cn3)oc2c1 [compound 23],< 30
3,"O=C(c1cc2ccc(CNCCO)cc2o1)N1CCCCC1 [Compound 34, (6-(((2-hydroxyethyl)amino)methyl)benzofuran-2-yl)(piperidin-1-yl)methanone]",< 30
4,OCCNCc1ccc2cc(CNC3CCOCC3)oc2c1 [compound 32],< 30

# Next, values leading:
row,receptor occupancy at 100 µM [%],SMILES
1,< 30,OCCNCc1ccc2cc(CN3CCCC(O)C3)oc2c1 (stereo not shown) [compound 28]
2,< 30,"O=C(NCCO)c1ccc2cc(Cc3ccccc3)oc2c1 [Compound 6, 2-benzyl-N-(2-hydroxyethyl)benzofuran-6-carboxamide]"
3,< 30,"O=C(CCO)Nc1ccc2cc(Cc3ccccc3)oc2c1 [Compound 11, N-(2-benzylbenzofuran-6-yl)-3-hydroxypropanamide]"
4,< 30,"OCCNCc1ccc2nc(Cc3ccccc3)oc2c1 [compound 47, 2-(((2-benzylbenzo[d]oxazol-6-yl)methyl)amino)ethan-1-ol]"
5,30 to 70,OCCNCc1ccc2oc(Cc3ccccc3)cc2c1 [compound 45]
6,30 to 70,"OCCNCc1cc2oc(Cc3ccccc3)cc2cc1F [Compound 36, 2-(((2-benzyl-5-fluorobenzofuran-6-yl)methyl)amino)ethan-1-ol]"
7,30 to 70,"OCCNCc1ccc2nc(Cc3ccccc3)sc2c1 [compound 48, 2-(((2-benzylbenzo[d]thiazol-6-yl)methyl)amino)ethan-1-ol]"
8,30 to 70,OCCNCc1cccc2oc(Cc3ccccc3)cc12 [compound 4]
9,30 to 70,"OCCNCc1ccc2cc(Cc3ccccc3)oc2c1F [Compound 38, 2-(((2-benzyl-7-fluorobenzofuran-6-yl)methyl)amino)ethan-1-ol]"
10,30 to 70,"O=S(=O)(c1ccccc1)c1cc2ccc(CNCCO)cc2o1 [Compound 18, 2-(((2-(phenylsulfonyl)benzofuran-6-yl)methyl)amino)ethan-1-ol]"
11,< 30,"CN(C)C(=O)Cc1cc2ccc(CNCCO)cc2o1 [Compound 29, 2-(6-(((2-hydroxyethyl)amino)methyl)benzofuran-2-yl)-N,N-dimethylacetamide]"
12,30 to 70,"O=S(=O)(Nc1ccccc1)c1cc2ccc(CNCCO)cc2o1 [Compound 19, 6-(((2-hydroxyethyl)amino)methyl)-N-phenylbenzofuran-2-sulfonamide]"
13,30 to 70,"OCCNCc1ccc2cc(Cc3ccncc3)oc2c1 [Compound 16, 2-(((2-(pyridin-4-ylmethyl)benzofuran-6-yl)methyl)amino)ethan-1-ol]"

# Test system: p62 puncta in HeLa cells
# Test: p62 puncta assay (immunocytochemistry and imaging, EVOS M7000 or Operetta CLS)
# Type: cell-based
# Details: Homo sapiens, fold change in p62 puncta levels relative to DMSO control, 24 hr
# Description: HeLa cells were seeded in coated 96-well plates (10,000 cells) and allowed to adhere overnight. After 24 hours of treatment with either vehicle (DMSO) or test compounds, the media was discarded, and cells were rinsed with ice-cold 1×PBS before fixation by 4% formaldehyde or paraformaldehyde for 20 min. Cells were then washed with 1×PBS and permeabilized with 0.1% Triton X-100 in PBS for 20 min and blocked with Blocking Buffer in PBS for 1 hour. The cells were incubated thereafter for 1 hour with anti-p62 primary antibody in Blocking Buffer, followed by incubation with secondary antibody for 1 hour. DAPI dye was used to visualize nuclei of fixed cells. The blocking buffer used were 5% Fetal Bovine Serum (FBS, ThermoFIsher Scientific, 10270106) and Li-cor Intercept (PBS) Blocking Buffer (Li-cor, 927-70001). The primary antibody used was mouse anti-p62 primary antibody (Novus Biologicals, H00008878-MO1). The secondary antibodies used were goat anti-mouse Alexa Fluor Plus 488 secondary antibody (Invitrogen, GOXMS) and goat anti-mouse Alexa Fluor 488 secondary antibody (Invitrogen, A-11029). The DAPI dyes used were DAPI dye (Invitrogen, 62248) and DAPI dye (Invitrogen, D1306).
# For the EVOS M7000 System, cells were imaged on the EVOS M7000 microscope using a 20× air objective (Nikon, N.A 0.45). DAPI and p62 channels were illuminated with LED light cubes using integrated hard-coated filter sets for DAPI (357/447 nm) and GFP (470/525 nm) respectively. Images were analysed for p62 puncta count on the Celeste 6.0 software.
# For the Operetta CLS System, cells were imaged on the Operetta CLS using a 63× water objective on the DAPI and Alexa 488 channels. Images were analysed for p62 puncta count on the Harmony 5.1 software.
# HeLa cells were treated with compounds for 24 hours to evaluate the effect of these compounds on p62 puncta activity. The resulting changes in levels of p62 puncta were assessed by imaging, either on the EVOS M7000 or Operetta CLS systems as described in experimental procedures. The fold change of p62 puncta levels induced by compound treatment relative to vehicle control (DMSO) was determined and summarized in Table 10.
row,SMILES,fold induction at 5 µM
1,OCCNCc1ccc2oc(Cc3ccccc3)cc2c1 [compound 45],< 2
2,CC(C)(C)OC(=O)CCOCCNCc1ccc2cc(CCc3ccc(F)cc3)oc2c1 [compound 132],> 2
3,CC(C)(C)OC(=O)N1CCN(CCOCCNCc2ccc3cc(CCc4ccc(F)cc4)oc3c2)CC1 [compound 147],> 2
4,CNCCOCCOCCNCc1ccc2cc(CCc3ccc(F)cc3)oc2c1 [compound 86],> 2
5,OCCNCc1ccc2cc(-c3cccc(Cl)c3)oc2c1 [compound 73],> 2
6,C#Cc1ccc(COCCNCc2ccc3cc(CCc4ccc(F)cc4)oc3c2)cc1 [compound 164],> 2
7,CC(C)NCCOCc1ccc2cc(-c3ccccc3)oc2c1 [compound 77],> 2
8,CCOC(=O)C1CCN(C(=O)COCCNCc2ccc3cc(CCc4ccc(F)cc4)oc3c2)CC1 [compound 142],> 2
